Measured values taken from US10071035B2, “Use of benzyl alcohol as a defoaming agent” (Colgate-Palmolive Company, priority 2014, dated 2018).

Legend:
[1] = Defoaming of foam generated from aqueous 0.2% sodium lauryl sulfate solution in measuring cylinders; assay type: physicochemical; settings: three minutes after addition of 1 mL aliquot of defoaming agent to 0.2% SLS foam
Protocol: Three aqueous solutions of 0.2% sodium lauryl sulfate were prepared in 250 mL measuring cylinders by diluting 5 g of a 2% sodium lauryl sulfate stock solution with water to give a total volume of 50 mL. The solutions were agitated by swirling the measuring cylinders 12 times to generate foam. The volumes of foam generated were recorded. A 1 mL aliquot of defoaming agent was then added to each of the solutions at a rate of 0.01 mL/s. The defoaming agents investigated were benzyl alcohol, methanol, and water. Three minutes after the addition of the defoaming agent, the volumes of foam present in each vessel were recorded.

[2] = Time taken to defoam (batch to settle) under vacuum during manufacture of oral care composition; settings: composition B (0.3% benzyl alcohol) versus comparative composition A, 4 kg batch
Protocol: The compositions were manufactured as follows: • 1. The sorbitol was added to an SS vessel having a stirrer. The stirrer was started. The sorbitol was heated to 60-62° C. • 2. Half of the purified water was added to the SS vessel. • 3. The copolymer of methyl vinyl ether and maleic acid was added to the SS vessel and mixed. Mixing was continued until the copolymer of methyl vinyl ether and maleic acid was fully dispersed. • 4. The NaOH (50% solution) was added to the SS vessel and mixed for 5 minutes. • 5. The remaining purified water was added to the SS vessel. • 6. […] The pre-mix was added to the SS vessel. • 7. The resulting gel was mixed for 20 minutes at a temperature of 64-67° C. • 8. The gel was transferred to a mixer. The thickener silica was added to the mixer and mixed for 5 minutes. The mixer used in the present experiment was an Alpro mixer. • 9. The abrasive silica and titanium dioxide were added to the mixer and mixed under vacuum. Mixing was continued until the temperature reached 46° C. • 10. At 46° C., the flavor, triclosan and sodium lauryl sulfate granules were added to the mixture. If used, benzyl alcohol was also added at this stage. • 11. The resulting mixture was then stirred for 2 minutes. Vacuum was then applied. The time taken for the batch to settle was observed. • 12. After allowing the batch to settle, mixing was continued for a further 8 minutes. […]

Structure (SMILES) | % reduction in foam after addition of defoaming agent [1] [%] | reduction of the defoaming time [2] [%] | reduction of the defoaming time ([2]; listed as benzyl alcohol)
OCc1ccccc1 [Benzyl alcohol, benzyl alcohol] | 59.1 | 50 | about 50%
CO [Methanol, methanol, reference compound] | 74.5 |  | 
